Drawing on PubChem BioAssay (NCI), this text covers GI50 and TGI for ten compounds.

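How tested: cells in 96-well plates exposed to compound for 48 hours at five concentrations. GI50 = concentration required for 50% inhibition of growth. TGI denotes the concentration required for complete inhibition of growth.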 Some results are limits rather than exact numbers.

Assay in all cases: NCI tumour cell line growth inhibition, 48 h
In assay [1] the test system is RXF 393 renal.
Assay [2] has as its system NCI-H460 lung.
Assay [3] relates to HCC-2998 colon.
The test system of assay [4] is A549 NSCLC.
The test system of assay [5] is OVCAR-4 ovarian.
The subject of assay [6] is KM12 colon.
In assay [7] the test system is CCRF-CEM leukemia.
The subject of assay [8] is 786-0 renal.

As for `CC1(C)CC[C@]2(C(=O)O)CC[C@]3(C)C(=CC[C@@H]4[C@@]5(C)C/C(=C/c6cccnc6)[C@H](O)C(C)(C)[C@@H]5CC[C@]43C)[C@@H]2C1`, the GI50 is 7.28 µM in assay [1]; 4.14 µM in assay [2]; 11.4 µM in assay [3]; 3.65 µM in assay [4]; 40 µM in assay [5]; 4.58 µM in assay [6]. The GI50 in assay [7] was 2.88 µM; in assay [8], 11.2 µM. Further, the TGI in assay [1] was 36.6 µM; in assay [2], 26.4 µM; in assay [3] it was 54.4 µM; in assay [4], above 100 µM; in assay [5], above 100 µM; in assay [6] it was 32.7 µM. Besides, the TGI in assay [7] was 18.5 µM; in assay [8] it was above 100 µM.
Consider `FC(F)(F)c1ccc(-c2cnc(-c3nn[nH]n3)nc2NC2CCCCCC2)cc1`, for which the GI50 in assay [1], in assay [2], in assay [3], in assay [4], in assay [5] and in assay [6] was above 10 µM throughout. The GI50 in assay [7] and in assay [8] was above 10 µM each time. Also, the TGI in assay [1], in assay [2], in assay [3], in assay [4], in assay [5] and in assay [6] was above 10 µM each time. Also, the TGI in assay [7] and in assay [8] was above 10 µM in each case.
`c1c[nH]c(CN2CCN(Cc3ncc[nH]3)CC2)n1`: the TGI in assay [1], in assay [2], in assay [4], in assay [5], in assay [6] and in assay [7] was above 100 µM in each case. In assay [8], this compound gave a TGI above 100 µM.
`C=C(C)[C@@H]1CC[C@]2(C(=O)OC)CC[C@]3(C)[C@H](CC[C@@H]4[C@@]5(C)CC/C(=N\OCCC(=NCCC#N)NOCCC#N)C(C)(C)[C@@H]5CC[C@]43C)[C@@H]12`: the GI50 in assay [1] is 5.64 µM; in assay [2], 11.1 µM; in assay [3] it was 13.8 µM; in assay [4], 5.27 µM; in assay [5], 12.3 µM; in assay [6] it was 9.35 µM. Besides, the results for the GI50 in assay [7] and in assay [8] were 11.7 µM and 6.42 µM, respectively. The TGI in assay [1] is 16.6 µM; in assay [2], above 50 µM; in assay [3], above 50 µM; in assay [4] it was above 50 µM; in assay [5] it was above 50 µM; in assay [6], above 50 µM. Further, the TGI is above 50 µM in assay [7] and 16.4 µM in assay [8].
On to `O=C(/C=C/c1c[nH]c2ccccc12)c1ccccc1O`, for which the TGI in assay [2] was determined as 28.3 µM; in assay [3], 27.1 µM; in assay [4], 24.5 µM; in assay [5] it was 27 µM; in assay [6], 70.1 µM; in assay [8] it was 25.5 µM.
Turning to `CC(C)CC(=O)O[C@H]1C(=O)O[C@@H]2C[C@H]3[C@H](C)C(=O)C(O[C@@H]4O[C@H](CO)[C@@H](O)[C@H](O)[C@H]4O)=C[C@]3(C)[C@H]3[C@@H](O)[C@H](O)[C@]4(C(=O)O)OC[C@]32[C@@H]14`, the GI50 in assay [1] is 10.8 µM; in assay [2], 27.5 µM; in assay [3], 20.6 µM; in assay [4] it was 42.1 µM; in assay [7], 24.7 µM; in assay [8], above 100 µM. Moreover, the TGI in assay [1] is 38.7 µM; in assay [2], above 100 µM; in assay [3], 54.4 µM; in assay [4], above 100 µM; in assay [6] it was above 100 µM; in assay [7], 83.6 µM. The compound further came in with a TGI in assay [8] above 100 µM.
In the case of `CC(=O)O[C@@H]1[C@H]2O[C@H]2[C@H]2O[C@@]2(COC(=O)c2ccccc2)[C@H]1OC(C)=O`, the TGI in assay [2], in assay [3], in assay [4], in assay [5], in assay [6] and in assay [7] was above 100 µM each time. In assay [8], this compound registered a TGI above 100 µM.
For `COc1cc(C(=O)N[C@@H]2CCCN(C)C2)ccc1Nc1ncc2c(n1)N(C1CCCC1)CC(C)(C)C(=O)N2C`, the GI50 in assay [1] is 0.0427 µM; in assay [2], 0.04 µM; in assay [3], 0.0498 µM; in assay [4], 0.0549 µM; in assay [5], 10.8 µM; in assay [6], 0.0343 µM. Moreover, the values for the GI50 in assay [7] and in assay [8] were 0.0349 µM and 0.308 µM, respectively. For the same compound, the TGI in assay [1] amounted to 8.99 µM; in assay [2] it was 14.8 µM; in assay [3], 14.7 µM; in assay [4] it was 5.18 µM; in assay [5], 23.4 µM; in assay [6], 18.3 µM. For the same compound, the TGI was 16.5 µM in assay [7] and 6.43 µM in assay [8].
As to `COc1ncc(-c2ccc3nc(N)n(-c4ccccc4C(F)(F)F)c(=O)c3c2)cc1S(=O)(=O)Nc1ccc(F)cc1F`, the GI50 in assay [1] was 0.099 µM; in assay [2], 5.03 µM; in assay [3], 1.74 µM; in assay [4], 0.653 µM; in assay [5], 3.64 µM; in assay [6] it was 1.06 µM. The GI50 in assay [7] is 1.28 µM; in assay [8], 3.16 µM. Besides, the TGI in assay [1] is 4.46 µM; in assay [2], 36.6 µM; in assay [3] it was 13.7 µM; in assay [4] it was above 100 µM; in assay [5], above 100 µM; in assay [6], 12.2 µM. The TGI in assay [7] is 32.2 µM; in assay [8], 83.7 µM.
In the case of `N=C(N)c1ccc(-c2ccc(-c3cccs3)s2)cc1F`, the GI50 in assay [1] was 1.25 µM; in assay [2], 0.0436 µM; in assay [3] it was 1.29 µM; in assay [4], 0.0305 µM; in assay [5], 1.54 µM; in assay [6] it was 1.01 µM. For the same compound, the GI50 in assay [7] was 1.58 µM; in assay [8], 1.14 µM. Also, the TGI in assay [1] turned out to be 2.64 µM; in assay [2], 1.05 µM; in assay [3], 2.93 µM; in assay [4], 1.27 µM; in assay [5], 3.85 µM; in assay [6] it was 2.38 µM. The values for the TGI in assay [7] and in assay [8] were 3.46 µM and 2.63 µM, respectively.
